Source: patent US20040029186A1, “Methods” (priority 2000, published 2004)

Biological target: T1, α4β1 integrin (Homo sapiens, UniProt P05556+P13612)
T1 construct: endogenous in cells; host or cells: cells of heparinised human whole blood
Experiment: Human whole blood cell adhesion to VCAM-1 coated magnetic beads, in vitro
Assay type: cell-based
Details: 1 mM manganese chloride, 1 h room temperature, control samples without antibody
Description: Whole human or animal blood (e.g. rat, mouse, dog), was collected into sodium heparin (10 Units/ml blood).
487.5 μl aliquots of heparinised naive human or animal whole blood were dispensed into reaction tubes containing 7.5 μl biotinylated VCAM beads and either 5 μl of a solution of a compound believed to be an α4β1 integrin inhibitor or, as a control, 5 μl of the solvent used to dissolve the compound and either with or without 2 μl anti-α4 antibody. […]
After this time the wash procedure with chilled PBS was carried out three times before the addition of 130 μl per well of 2% Triton X-100 (Sigma T-9284) in distilled water to lyse the cells adhering to the beads. The beads were once again captured by the Dynal MPC® magnet, 100 μl aliquots of the solution from each well was transferred to a clean 96 well flat-bottomed plate and the fluorescence of each well measured using an Fmax fluorimeter (Molecular Devices, Crawley, West Sussex), excitation 485 nm, emission 538 nm. […]
The tubes were rotated on a windmill mixer for 2 h at 4° C. before addition of 500 μl ice cold PBS and placing on a Dynal MPC® magnet for 10 min to recover the beads. […] The fluorescence of each well was measured using a fluorimeter, excitation 485 nm, emission 538 nm. Results were expressed as a percentage of the fluorescence in control samples containing no antibody. […]

T1 sequence (P13612 34-1032): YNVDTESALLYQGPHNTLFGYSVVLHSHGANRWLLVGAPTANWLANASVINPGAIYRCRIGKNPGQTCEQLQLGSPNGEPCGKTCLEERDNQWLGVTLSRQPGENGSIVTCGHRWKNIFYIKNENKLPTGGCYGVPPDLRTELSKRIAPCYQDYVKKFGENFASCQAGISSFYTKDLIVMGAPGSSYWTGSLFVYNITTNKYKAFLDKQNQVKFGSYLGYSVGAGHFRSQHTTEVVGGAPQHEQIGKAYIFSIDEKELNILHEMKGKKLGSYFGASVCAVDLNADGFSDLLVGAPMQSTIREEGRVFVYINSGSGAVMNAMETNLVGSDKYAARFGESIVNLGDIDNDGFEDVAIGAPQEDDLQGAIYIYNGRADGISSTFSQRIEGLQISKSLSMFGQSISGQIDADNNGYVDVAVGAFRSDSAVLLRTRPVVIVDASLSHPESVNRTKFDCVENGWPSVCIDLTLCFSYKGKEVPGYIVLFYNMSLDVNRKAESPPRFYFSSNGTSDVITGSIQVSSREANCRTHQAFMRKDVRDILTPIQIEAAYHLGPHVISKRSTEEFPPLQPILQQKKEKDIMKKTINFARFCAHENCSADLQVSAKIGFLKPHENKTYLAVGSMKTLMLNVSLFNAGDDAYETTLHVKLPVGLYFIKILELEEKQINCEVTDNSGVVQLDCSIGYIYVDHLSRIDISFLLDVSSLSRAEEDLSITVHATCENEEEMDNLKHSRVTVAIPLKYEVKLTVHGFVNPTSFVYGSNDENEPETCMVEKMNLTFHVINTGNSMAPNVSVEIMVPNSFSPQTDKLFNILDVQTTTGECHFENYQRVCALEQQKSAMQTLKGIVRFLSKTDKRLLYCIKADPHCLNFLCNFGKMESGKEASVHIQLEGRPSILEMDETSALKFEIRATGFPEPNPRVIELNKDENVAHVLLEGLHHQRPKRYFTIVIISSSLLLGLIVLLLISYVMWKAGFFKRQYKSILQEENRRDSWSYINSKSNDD
T1 sequence (P05556 21-798): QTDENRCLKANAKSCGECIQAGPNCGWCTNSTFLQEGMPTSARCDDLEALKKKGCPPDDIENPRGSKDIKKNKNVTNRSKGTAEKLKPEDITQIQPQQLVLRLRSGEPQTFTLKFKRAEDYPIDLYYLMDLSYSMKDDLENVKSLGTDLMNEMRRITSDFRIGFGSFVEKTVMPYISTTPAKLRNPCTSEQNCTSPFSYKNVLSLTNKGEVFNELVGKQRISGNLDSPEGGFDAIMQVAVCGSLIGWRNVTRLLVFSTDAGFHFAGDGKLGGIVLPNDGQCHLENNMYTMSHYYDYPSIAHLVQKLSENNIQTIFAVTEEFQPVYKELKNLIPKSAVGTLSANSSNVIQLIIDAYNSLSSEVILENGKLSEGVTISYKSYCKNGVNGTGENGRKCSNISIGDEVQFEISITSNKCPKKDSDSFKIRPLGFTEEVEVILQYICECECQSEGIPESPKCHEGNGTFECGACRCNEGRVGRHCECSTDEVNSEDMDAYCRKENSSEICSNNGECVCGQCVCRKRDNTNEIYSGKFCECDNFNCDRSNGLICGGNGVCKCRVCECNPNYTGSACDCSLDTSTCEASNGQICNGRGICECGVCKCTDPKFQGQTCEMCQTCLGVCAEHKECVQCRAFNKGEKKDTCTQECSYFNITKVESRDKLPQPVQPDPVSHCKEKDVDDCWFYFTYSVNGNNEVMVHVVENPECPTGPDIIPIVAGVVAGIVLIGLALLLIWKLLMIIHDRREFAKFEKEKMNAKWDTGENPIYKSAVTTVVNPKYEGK

Manganese chloride [Mn^2+]
increase of whole blood cell adhesion to VCAM-1 coated beads: approximately 2 fold
